# Measurements reported in ChEMBL document CHEMBL3885881, “DrugMatrix”.
# Species: Rattus norvegicus
# Test: DrugMatrix - Regimen: Daily Repeat
# Format: toxicity, organism-based, Sprague-Dawley
# Design: regimen Daily Repeat, gender Male, age 6-8 weeks
# Details: in vivo, po, route oral GAVAGE, vehicle .5 % CMC; for ABSOLUTE BASOPHIL / ABSOLUTE EOSINOPHIL / ABSOLUTE LYMPHOCYTE / ABSOLUTE MONOCYTE / ABSOLUTE SEGMENTED NEUTROPHIL / BASOPHIL / EOSINOPHIL / ERYTHROCYTE COUNT / HEMATOCRIT / HEMOGLOBIN / LEUKOCYTE COUNT / LYMPHOCYTE / MEAN CORPUSCULAR HEMOGLOBIN / MEAN CORPUSCULAR HEMOGLOBIN CONCENTRATION / MEAN CORPUSCULAR VOLUME / MONOCYTE / NEUTROPHIL / NUCLEATED RED BLOOD CELLS / PLATELET COUNT: tissue Blood; for ALANINE AMINOTRANSFERASE / ALBUMIN / ALKALINE PHOSPHATASE / ASPARTATE AMINOTRANSFERASE / BLOOD UREA NITROGEN / CARBON DIOXIDE / CHLORIDE / CHOLESTEROL / CREATINE PHOSPHOKINASE / CREATININE / GLUCOSE / LACTATE DEHYDROGENASE / LIPASE / PHOSPHORUS / POTASSIUM / SODIUM / TOTAL BILIRUBIN / TOTAL PROTEIN / URIC ACID: tissue Plasma
# [1] = 0 mg/kg, 72 h, dose level Control, time 3 day
# [2] = 0 mg/kg, 120 h, dose level Control, time 5 day
# [3] = 150 mg/kg, 72 h, dose level Low, time 3 day
structure (smiles),measurement,setting,value
C[C@@H](O)[C@H]1C(=O)N2C(C(=O)O)=C(S[C@@H]3CN[C@H](C(=O)N(C)C)C3)[C@H](C)[C@H]12 [MEROPENEM],ABSOLUTE BASOPHIL,[1],0 CELLS/uL
same,ABSOLUTE EOSINOPHIL,[1],222.83 CELLS/uL
same,ABSOLUTE LYMPHOCYTE,[1],14453 CELLS/uL
same,ABSOLUTE MONOCYTE,[1],0 CELLS/uL
same,ABSOLUTE SEGMENTED NEUTROPHIL,[1],1490.83 CELLS/uL
same,BASOPHIL,[1],0%
same,EOSINOPHIL,[1],1.33%
same,ERYTHROCYTE COUNT,[1],5.76 x10E6/uL
same,HEMATOCRIT,[1],36.52%
same,HEMOGLOBIN,[1],13.45 G/DL
same,LEUKOCYTE COUNT,[1],16.17 x10E3/uL
same,LYMPHOCYTE,[1],89.33%
same,MEAN CORPUSCULAR HEMOGLOBIN,[1],23.37 pg
same,MEAN CORPUSCULAR HEMOGLOBIN CONCENTRATION,[1],36.85 G/DL
same,MEAN CORPUSCULAR VOLUME,[1],63.47 fL
same,MONOCYTE,[1],0%
same,NEUTROPHIL,[1],9.33%
same,NUCLEATED RED BLOOD CELLS,[1],0 /100WBC
same,PLATELET COUNT,[1],1239.5 x10E3/uL
same,ALANINE AMINOTRANSFERASE,[1],43.83 u/L
same,ALBUMIN,[1],4.27 G/DL
same,ALKALINE PHOSPHATASE,[1],398.83 u/L
same,ASPARTATE AMINOTRANSFERASE,[1],81.17 u/L
same,BLOOD UREA NITROGEN,[1],17.67 mg/dL
same,CARBON DIOXIDE,[1],27.5 mmol/L
same,CHLORIDE,[1],99.17 MEQ/L
same,CHOLESTEROL,[1],74 mg/dL
same,CREATINE PHOSPHOKINASE,[1],331.5 u/L
same,CREATININE,[1],0.2 mg/dL
same,GLUCOSE,[1],171.33 mg/dL
same,LACTATE DEHYDROGENASE,[1],241.67 u/L
same,LIPASE,[1],9.5 u/L
same,PHOSPHORUS,[1],12.25 mg/dL
same,POTASSIUM,[1],6.33 MEQ/L
same,SODIUM,[1],141.28 MEQ/L
same,TOTAL BILIRUBIN,[1],0.15 mg/dL
same,TOTAL PROTEIN,[1],5.98 G/DL
same,URIC ACID,[1],1.63 mg/dL
same,ABSOLUTE BASOPHIL,[2],0 CELLS/uL
same,ABSOLUTE EOSINOPHIL,[2],148.67 CELLS/uL
same,ABSOLUTE LYMPHOCYTE,[2],16020.5 CELLS/uL
same,ABSOLUTE MONOCYTE,[2],29.17 CELLS/uL
same,ABSOLUTE SEGMENTED NEUTROPHIL,[2],1468.33 CELLS/uL
same,BASOPHIL,[2],0%
same,EOSINOPHIL,[2],1%
same,ERYTHROCYTE COUNT,[2],5.78 x10E6/uL
same,HEMATOCRIT,[2],35.77%
same,HEMOGLOBIN,[2],13.4 G/DL
same,LEUKOCYTE COUNT,[2],17.67 x10E3/uL
same,LYMPHOCYTE,[2],90.5%
same,MEAN CORPUSCULAR HEMOGLOBIN,[2],23.22 pg
same,MEAN CORPUSCULAR HEMOGLOBIN CONCENTRATION,[2],37.47 G/DL
same,MEAN CORPUSCULAR VOLUME,[2],61.92 fL
same,MONOCYTE,[2],0.17%
same,NEUTROPHIL,[2],8.33%
same,NUCLEATED RED BLOOD CELLS,[2],0.17 /100WBC
same,PLATELET COUNT,[2],1255.5 x10E3/uL
same,ALANINE AMINOTRANSFERASE,[2],46.5 u/L
same,ALBUMIN,[2],4.38 G/DL
same,ALKALINE PHOSPHATASE,[2],336 u/L
same,ASPARTATE AMINOTRANSFERASE,[2],76.5 u/L
same,BLOOD UREA NITROGEN,[2],20 mg/dL
same,CARBON DIOXIDE,[2],27.5 mmol/L
same,CHLORIDE,[2],101 MEQ/L
same,CHOLESTEROL,[2],71.33 mg/dL
same,CREATINE PHOSPHOKINASE,[2],231.83 u/L
same,CREATININE,[2],0.37 mg/dL
same,GLUCOSE,[2],168.83 mg/dL
same,LACTATE DEHYDROGENASE,[2],174 u/L
same,LIPASE,[2],8.67 u/L
same,PHOSPHORUS,[2],11.48 mg/dL
same,POTASSIUM,[2],6.82 MEQ/L
same,SODIUM,[2],143.8 MEQ/L
same,TOTAL BILIRUBIN,[2],0.2 mg/dL
same,TOTAL PROTEIN,[2],5.98 G/DL
same,URIC ACID,[2],1.83 mg/dL
same,ABSOLUTE BASOPHIL,[3],0 CELLS/uL
same,ABSOLUTE EOSINOPHIL,[3],455.67 CELLS/uL
same,ABSOLUTE LYMPHOCYTE,[3],14286.67 CELLS/uL
same,ABSOLUTE MONOCYTE,[3],45.33 CELLS/uL
same,ABSOLUTE SEGMENTED NEUTROPHIL,[3],1912.33 CELLS/uL
same,BASOPHIL,[3],0%
same,EOSINOPHIL,[3],2.67%
same,ERYTHROCYTE COUNT,[3],5.53 x10E6/uL
same,HEMATOCRIT,[3],35.53%
same,HEMOGLOBIN,[3],13.27 G/DL
same,LEUKOCYTE COUNT,[3],16.7 x10E3/uL
same,LYMPHOCYTE,[3],85.67%
same,MEAN CORPUSCULAR HEMOGLOBIN,[3],24.03 pg
same,MEAN CORPUSCULAR HEMOGLOBIN CONCENTRATION,[3],37.37 G/DL
same,MEAN CORPUSCULAR VOLUME,[3],64.3 fL
same,MONOCYTE,[3],0.33%
same,NEUTROPHIL,[3],11.33%
same,NUCLEATED RED BLOOD CELLS,[3],0 /100WBC
same,PLATELET COUNT,[3],1310.33 x10E3/uL
same,ALANINE AMINOTRANSFERASE,[3],52.67 u/L
same,ALBUMIN,[3],4.33 G/DL
same,ALKALINE PHOSPHATASE,[3],370.33 u/L
same,ASPARTATE AMINOTRANSFERASE,[3],85.67 u/L
same,BLOOD UREA NITROGEN,[3],16.33 mg/dL
same,CARBON DIOXIDE,[3],27 mmol/L
same,CHLORIDE,[3],101.33 MEQ/L
same,CHOLESTEROL,[3],78.33 mg/dL
same,CREATINE PHOSPHOKINASE,[3],300.67 u/L
same,CREATININE,[3],0.22 mg/dL
same,GLUCOSE,[3],154.33 mg/dL
same,LACTATE DEHYDROGENASE,[3],406.33 u/L
same,LIPASE,[3],9 u/L
same,PHOSPHORUS,[3],11.9 mg/dL
same,POTASSIUM,[3],6.59 MEQ/L
same,SODIUM,[3],143 MEQ/L
same,TOTAL BILIRUBIN,[3],0.2 mg/dL
same,TOTAL PROTEIN,[3],6.03 G/DL
same,URIC ACID,[3],2 mg/dL
